In US9271993B2, “Treatment of bacterial infectious diseases” (priority 2010, dated 2016):
Read-outs that look alike come from different tables or passages of the source.

How the values were obtained:
[1] = tested on: clinical isolates of M. tuberculosis; type: cell-based
[2] = tested on: clinical isolates of multidrug-resistant M. tuberculosis

## NCC[C@H](O)C(=O)N[C@@H]1C[C@H](N)[C@@H](O[C@H]2O[C@H](CN)[C@@H](O)[C@H](O)[C@H]2O)[C@H](O)[C@H]1O[C@H]1O[C@H](CO)[C@@H](O)[C@H](N)[C@H]1O [Amikacin]
[1]; strain 176949/08, 0.25 μg/ml
  Activity (resistant/susceptible): R
[1]; strain 176949/08, 1 μg/ml
  Activity (resistant/susceptible): S
[1]; strain 176949/08, 4 μg/ml
  Activity (resistant/susceptible): S
[1]; strain 177581/08, 0.25 μg/ml
  Activity (resistant/susceptible): R
[1]; strain 177581/08, 1 μg/ml
  Activity (resistant/susceptible): S
[1]; strain 177581/08, 4 μg/ml
  Activity (resistant/susceptible): S
[1]; strain 177958/08, 0.25 μg/ml
  Activity (resistant/susceptible): R
[1]; strain 177958/08, 1 μg/ml
  Activity (resistant/susceptible): S
[1]; strain 177958/08, 4 μg/ml
  Activity (resistant/susceptible): S
[1]; strain 178331/08, 0.25 μg/ml
  Activity (resistant/susceptible): R
[1]; strain 178331/08, 1 μg/ml
  Activity (resistant/susceptible): S
[1]; strain 178331/08, 4 μg/ml
  Activity (resistant/susceptible): S
[1]; strain 178557/08, 0.25 μg/ml
  Activity (resistant/susceptible): R
[1]; strain 178557/08, 1 μg/ml
  Activity (resistant/susceptible): S
[1]; strain 178557/08, 4 μg/ml
  Activity (resistant/susceptible): S

## CNC1C(OC2OC(CO)C(N)C(O)C2O)OC2CC(N)C(OC3C(N)CC(N)C(O)C3O)OC2C1O (centres unmarked) [Apramycin]
[2]; strain 186002/10, 0.25 μg/ml
  Activity (resistant/susceptible): R
[2]; strain 186002/10, 1 μg/ml
  Activity (resistant/susceptible): S
[2]; strain 186002/10, 4 μg/ml
  Activity (resistant/susceptible): S
[2]; strain 186002/10, 10 μg/ml
  Activity (resistant/susceptible): S
[2]; strain 186005/09, 0.25 μg/ml
  Activity (resistant/susceptible): R
[2]; strain 186005/09, 1 μg/ml
  Activity (resistant/susceptible): S
[2]; strain 186005/09, 4 μg/ml
  Activity (resistant/susceptible): S
[2]; strain 186005/09, 10 μg/ml
  Activity (resistant/susceptible): S
[2]; strain 186010/09, 0.25 μg/ml
  Activity (resistant/susceptible): R
[2]; strain 186010/09, 1 μg/ml
  Activity (resistant/susceptible): S
[2]; strain 186010/09, 4 μg/ml
  Activity (resistant/susceptible): S
[2]; strain 186010/09, 10 μg/ml
  Activity (resistant/susceptible): S
[2]; strain 186013/09, 0.25 μg/ml
  Activity (resistant/susceptible): R
[2]; strain 186013/09, 1 μg/ml
  Activity (resistant/susceptible): S
[2]; strain 186013/09, 4 μg/ml
  Activity (resistant/susceptible): S
[2]; strain 186013/09, 10 μg/ml
  Activity (resistant/susceptible): S
[2]; strain 186014/09, 0.25 μg/ml
  Activity (resistant/susceptible): R
[2]; strain 186014/09, 1 μg/ml
  Activity (resistant/susceptible): S
[2]; strain 186014/09, 4 μg/ml
  Activity (resistant/susceptible): S
[2]; strain 186014/09, 10 μg/ml
  Activity (resistant/susceptible): S
[1]; strain 176949/08, 0.25 μg/ml
  Activity (resistant/susceptible): R
[1]; strain 176949/08, 1 μg/ml
  Activity (resistant/susceptible): S
[1]; strain 176949/08, 4 μg/ml
  Activity (resistant/susceptible): S
[1]; strain 177581/08, 0.25 μg/ml
  Activity (resistant/susceptible): R
[1]; strain 177581/08, 1 μg/ml
  Activity (resistant/susceptible): S
[1]; strain 177581/08, 4 μg/ml
  Activity (resistant/susceptible): S
[1]; strain 177712/08, 0.25 μg/ml
  Activity (resistant/susceptible): R
[1]; strain 177712/08, 1 μg/ml
  Activity (resistant/susceptible): S
[1]; strain 177712/08, 4 μg/ml
  Activity (resistant/susceptible): S
[1]; strain 177809/08, 0.25 μg/ml
  Activity (resistant/susceptible): R
[1]; strain 177809/08, 1 μg/ml
  Activity (resistant/susceptible): S
[1]; strain 177809/08, 4 μg/ml
  Activity (resistant/susceptible): S
[1]; strain 177958/08, 0.25 μg/ml
  Activity (resistant/susceptible): R
[1]; strain 177958/08, 1 μg/ml
  Activity (resistant/susceptible): S
[1]; strain 177958/08, 4 μg/ml
  Activity (resistant/susceptible): S
[1]; strain 178122/08, 0.25 μg/ml
  Activity (resistant/susceptible): R
[1]; strain 178122/08, 1 μg/ml
  Activity (resistant/susceptible): S
[1]; strain 178122/08, 4 μg/ml
  Activity (resistant/susceptible): S
[1]; strain 178242/08, 0.25 μg/ml
  Activity (resistant/susceptible): R
[1]; strain 178242/08, 1 μg/ml
  Activity (resistant/susceptible): S
[1]; strain 178242/08, 4 μg/ml
  Activity (resistant/susceptible): S
[1]; strain 178331/08, 0.25 μg/ml
  Activity (resistant/susceptible): R
[1]; strain 178331/08, 1 μg/ml
  Activity (resistant/susceptible): S
[1]; strain 178331/08, 4 μg/ml
  Activity (resistant/susceptible): S
[1]; strain 178557/08, 0.25 μg/ml
  Activity (resistant/susceptible): R
[1]; strain 178557/08, 1 μg/ml
  Activity (resistant/susceptible): S
[1]; strain 178557/08, 4 μg/ml
  Activity (resistant/susceptible): S
[1]; strain 178594/08, 0.25 μg/ml
  Activity (resistant/susceptible): R
[1]; strain 178594/08, 1 μg/ml
  Activity (resistant/susceptible): S
[1]; strain 178594/08, 4 μg/ml
  Activity (resistant/susceptible): S

## [H]/N=C(/N)N[C@H]1[C@H](O)[C@@H](O)[C@H](O[C@@H]2O[C@@H](C)[C@](O)(C=O)[C@H]2O[C@@H]2O[C@@H](CO)[C@H](O)[C@@H](O)[C@@H]2NC)[C@@H](N/C(N)=N\[H])[C@@H]1O [Streptomycin]
[1]; strain 176949/08, 0.25 μg/ml
  Activity (resistant/susceptible): S
[1]; strain 176949/08, 1 μg/ml
  Activity (resistant/susceptible): S
[1]; strain 176949/08, 4 μg/ml
  Activity (resistant/susceptible): S
[1]; strain 177581/08, 0.25 μg/ml
  Activity (resistant/susceptible): S
[1]; strain 177581/08, 1 μg/ml
  Activity (resistant/susceptible): S
[1]; strain 177581/08, 4 μg/ml
  Activity (resistant/susceptible): S
[1]; strain 177958/08, 0.25 μg/ml
  Activity (resistant/susceptible): R
[1]; strain 177958/08, 1 μg/ml
  Activity (resistant/susceptible): S
[1]; strain 177958/08, 4 μg/ml
  Activity (resistant/susceptible): S
[1]; strain 178331/08, 0.25 μg/ml
  Activity (resistant/susceptible): R
[1]; strain 178331/08, 1 μg/ml
  Activity (resistant/susceptible): S
[1]; strain 178331/08, 4 μg/ml
  Activity (resistant/susceptible): S
[1]; strain 178557/08, 0.25 μg/ml
  Activity (resistant/susceptible): R
[1]; strain 178557/08, 1 μg/ml
  Activity (resistant/susceptible): S
[1]; strain 178557/08, 4 μg/ml
  Activity (resistant/susceptible): S
